# Measurements taken from patent EP0515684A1, “INHIBITOR OF DENATURED LDL FORMATION” (Chugai Seiyaku Kabushiki Kaisha, priority 1990, dated 1991).
# Test system: rabbit LDL
# Assay: Amount of thiobarbituric acid reactive substances (TBARS) formed on Cu2+ oxidation of LDL
# Type: biochemical
# Details: 5 µM of Cu²⁺ added to rabbit LDL, followed by heating
# Description: The biological properties of the compounds as shown hereinafter were examined by the following methods. • (1) The amount of thiobarbituric acid reactive substances: 5 µM of Cu²⁺ was added to rabbit LDL, prepared by the method reported by Havel et al., followed by heating. Then the antioxidative effect of each compound was examined by using the thiobarbituric acid reactive substances (TBARS) thus formed as the guidance. […] 0.5 ml of an n-butanol solution containing 0.2 µM of MCLA and 10 mM of linoleic acid was introduced into a vial for luminescence analysis and the luminescence due to autoxidation was measured in a thermostat at 37°C. […] To the obtained plasma, were added EDTA-NaN₃ (a 5% solution of pH 7.4) and a benzamidine solution (60 mg/ml) respectively in amounts of 0.8 ml and 0.5 ml per 100 ml of the plasma. Then rabbit or human LDL (1.019 < d < 1.063) was prepared by ultracentrifugation in accordance with the method of Havel et al.*. After performing the ultracentifugation again, the LDL was washed and concentrated. Then it was dialyzed against a 150 mM NaCl - 2 mM Na₂HPO₄ solution at 4°C and KBr was removed. The protein content was determined by Lowry method** and then the LDL was subjected to the subsequent procedure. (Measurement of electrophoretic mobility in agarose gel) 10 µM of Cu²⁺ and a specimen were added to an LDL-containing solution (3.00 µg protein/ml). After incubating at 37°C for approximately 24 hours, a portion (1 µl) thereof was applied onto an agarose gel film (Universal Film, manufactured by Corning Co.) and then subjected to electrophoresis (Agarose Gel Electrophoresis System for Lipoprotein, manufactured by Corning Co.). Thus the mobility was measured by staining lipids with Fat Red 7B. […] After 3 days, peritoneal macrophages were collected from the mouse and incubated in an RPMI 1640 medium containing 10% of FBS. The macrophages were used in the • examination on the next day.
Structure (SMILES),"Formed TBARS (%) (Compound conc. 10^-5 M, 10 µM)","Formed TBARS (%) (Compound conc. 10^-6 M, 1 µM)"
COc1cc(NCc2ccc(CNc3cc(OC)c(OC)c(OC)c3)cc2)cc(OC)c1OC [Compound 57],12%,34%
COc1cc(NCc2ccc(OC/C=C(\C)CC/C=C(\C)CCC=C(C)C)cc2)cc(OC)c1OC [Compound 49],39%,78%
"CCCCC(Nc1cc(OC)c(OC)c(OC)c1)c1ccccc1 (stereo not drawn) [Compound 77, N-(1-phenylpentyl)-3,4,5-trimethoxyaniline]",17%,31%
COc1cc(NCCCc2ccc(CO)cc2)cc(OC)c1OC [Compound 75],16%,38%
COc1cc(NCc2ccc(CO)cc2)cc(OC)c1OC [Compound 67],35%,55%
COc1cc(NC2CCC3CCCCC3C2)cc(OC)c1OC (stereo not drawn) [Compound 110],7%,16%
COc1cc(NCCCc2ccccc2)cc(OC)c1OC [Compound 70],18%,25%
COc1cc(NCc2ccc(Br)cc2)cc(OC)c1OC [Compound 26],12%,27%
CCCCCCCCCCCCNc1cc(OC)c(OC)c(OC)c1 [Compound 113],29%,66%
COc1cc(NCc2cccc(Br)c2)cc(OC)c1OC [Compound 27],12%,29%
"COc1cc(N(C)Cc2ccccc2)cc(OC)c1OC [Compound 2, N-benzyl-N-methyl-3,4,5-trimethoxyaniline]",31%,56%
COc1cc(NCc2ccc[nH]2)cc(OC)c1OC [Compound 94],63%,87%
COc1cc(N(CC=C(C)C)CC=C(C)C)cc(OC)c1OC [Compound 117],35%,63%
COc1cc(NCC=C(C)C)cc(OC)c1OC [Compound 116],33%,61%
COc1cc(NCc2cccnc2)cc(OC)c1OC [Compound 99],47%,79%
COc1cc(NCCC(C)CCCC(C)CCCC(C)CCCC(C)C)cc(OC)c1OC (stereo not drawn) [Compound 115],15%,71%
CCCCCCCCOc1ccc(CNc2cc(OC)c(OC)c(OC)c2)cc1 [Compound 42],19%,72%
COc1cc(NC(c2ccccc2)c2ccccc2)cc(OC)c1OC [Compound 82],15%,34%
COc1cc(N(CC=Cc2ccccc2)CC=Cc2ccccc2)cc(OC)c1OC [Compound 86],27%,52%
COc1cc(NCc2ccccc2OCCC(C)CCCC(C)C)cc(OC)c1OC (stereo not drawn) [Compound 45],15%,80%
COc1cc(NCc2nccn2CC=C(C)CCC=C(C)CCC=C(C)C)cc(OC)c1OC [Compound 100],13%,81%
CCCCCCCCCCCCOc1ccc(CNc2cc(OC)c(OC)c(OC)c2)cc1OCCCCCCCCCCCC [Compound 43],62%,94%
COc1cc(NC(CC(C)C)c2ccccc2)cc(OC)c1OC (stereo not drawn) [Compound 81],15%,25%
"CCN(Cc1ccccc1)c1cc(OC)c(OC)c(OC)c1 [Compound 3, N-benzyl-N-ethyl-3,4,5-trimethoxyaniline]",35%,51%
COc1cc(NCc2cccs2)cc(OC)c1OC [Compound 97],24%,44%
COc1cc(NCC2CCCCC2)cc(OC)c1OC [Compound 103],8%,23%

Structure (SMILES),"Formed TBARS (%) (Compound conc. 10^-5 M, 10 µM)","Formed TBARS (%) (Compound conc. 10^-6 M, 1 µM)"
COc1cc(N(CC2CCCCC2)CC2CCCCC2)cc(OC)c1OC [Compound 104],23%,31%
CCCCCCOc1ccc(CNc2cc(OC)c(OC)c(OC)c2)cc1 [Compound 41],16%,63%
COc1cc(NCc2ccc(OC/C=C(\C)CCCC(C)CCCC(C)CCCC(C)C)cc2)cc(OC)c1OC (stereo not drawn) [Compound 48],40%,90%
COc1cc(NCc2ccc([N+](=O)[O-])cc2)cc(OC)c1OC [Compound 64],17%,38%
CCOC(=O)C(C)(C)Oc1ccc(CNc2cc(OC)c(OC)c(OC)c2)cc1 [Compound 55],20%,46%
COc1cc(N(CC=C(C)CCCC(C)CCCC(C)CCCC(C)C)Cc2ccccc2)cc(OC)c1OC (stereo not drawn) [Compound 9],57%,78%
COc1cc(NCc2ccccc2Br)cc(OC)c1OC [Compound 28],13%,30%
COc1cc(NC2CCCc3ccccc32)cc(OC)c1OC (stereo not drawn) [Compound 90],9%,26%
COc1cc(NC2CCOc3ccccc32)cc(OC)c1OC (stereo not drawn) [Compound 101],18%,41%
COc1cc(NCc2cccc(Oc3ccccc3)c2)cc(OC)c1OC [Compound 51],16%,32%
COc1cc(N(CC=C(C)CCC=C(C)C)Cc2ccccc2)cc(OC)c1OC [Compound 8],31%,55%
COc1cc(NCc2ccco2)cc(OC)c1OC [Compound 95],29%,66%
COc1cc(NCc2ccc(OC/C=C(\C)CCC=C(C)C)cc2)cc(OC)c1OC [Compound 47],17%,76%
C=CCC(Nc1cc(OC)c(OC)c(OC)c1)c1ccccc1 (stereo not drawn) [Compound 80],17%,33%
COc1cc(NC(C)C2CCCCC2)cc(OC)c1OC (stereo not drawn) [Compound 105],8%,22%
COc1cc(NCC=Cc2ccccc2)cc(OC)c1OC [Compound 85],20%,64%
CCCCCCCCCCCCN(CCCCCCCCCCCC)c1cc(OC)c(OC)c(OC)c1 [Compound 114],93%,94%
COc1cc(NCc2ccc(OC(C)(C)C(=O)O)cc2)cc(OC)c1OC [Compound 56],59%,77%
COc1cc(NCC2CCCC2)cc(OC)c1OC [Compound 102],15%,27%
COc1cc(NCc2ccccc2SCCC(C)CCCC(C)C)cc(OC)c1OC (stereo not drawn) [Compound 50],17%,70%
CCOC(=O)CCCCCCOc1ccc(CNc2cc(OC)c(OC)c(OC)c2)cc1 [Compound 53],13%,38%
COc1cc(NCCCCc2ccccc2)cc(OC)c1OC [Compound 71],7%,20%
CCCCCCC(Nc1cc(OC)c(OC)c(OC)c1)c1ccccc1 (stereo not drawn) [Compound 78],14%,29%
COc1cc(NCc2ccc(Oc3ccccc3)cc2)cc(OC)c1OC [Compound 52],13%,43%
COc1cc(NCc2ccccc2OC/C=C(\C)CCC=C(C)C)cc(OC)c1OC [Compound 46],13%,69%
